Assay results: patent publication US11191293B2, “Nutritional composition and infant formula for promoting myelination of the brain” (NESTEC S.A., priority 2015, dated 2021)

Key:
[1] = system: brain myelination (myelin water fraction); test: Cross-sectional correlation of infant formula nutrient content with brain myelination (mcDESPOT MRI myelin water fraction); assay type: in vivo, human; conditions: formula-fed children up to 5 years of age; brain regions named per nutrient
Description: MRI (Magnetic Resonance Imaging): MRI brain scans of infants and children between 0 and 5 years were acquired using a white matter imaging technique. This technique provides a quantitative measure, the Myelin Water Fraction (MWF), which is a surrogate marker of myelin content in the brain. When mapped as a function of time across early childhood, myelination trajectories can be generated.
Infant formula composition: six infant formulas fed to infants participating in a study were analyzed for their composition/level of myelin-relevant nutrients.
Infants included in this study were drawn from a larger longitudinal study of normal brain and behavioral development: the Brown University Assessment of Myelination and Behavior Across Maturation (BAMBAM). To focus on neurotypical development, children with known potential risk factors for learning, neurologic, or psychiatric disorders were specifically excluded during recruitment and enrollment. Thus, children with in utero alcohol or illicit substance exposure, premature (<37 weeks gestation) or multiple birth, fetal ultrasound abnormalities, complicated pregnancy (e.g., preeclampsia), APGAR scores <8, NICU admission, neurological disorder (e.g., head injury, epilepsy), psychiatric or developmental disorders in the infant, parents or siblings (including maternal depression requiring medication) were excluded. Ongoing screenings, such as the MCAT for autism, or CBCL for behavioral problems, were further used to remove enrolled children with clinically concerning behaviors or overt medical conditions (such as autism spectrum disorders).
A combination of retrospective and prospective data were acquired from parents via detailed medical histories and parental interview on the type of infant formula used, percentage of breastfeeding to formula feeding, and length of exclusive breastfeeding. This information was updated at each study visit, which occurred approximately every 6 months for children under 2 years, and yearly for older children. Using this information, children were categorized into one of 2 groups: #1. Exclusively formula-fed; and #2. Exclusively breastfed for at least 90 days (3 months). Children who were fed a combination of breastmilk and formula within 3 months were excluded from our analysis. Infants within the exclusively formula-fed group were further sub-divided based on parental reports of the main infant formula used throughout the first 3 months. Main formula was defined as that given 90% of the time or more (in the case were parents used an alternate brand during vacation, for example).
Using these criteria, 94 exclusively formula-fed infants and young children were selected into group #1. These included 13 children who received formula #2; 28 who received formula #5; 8 who received formula #3; 39 who received formula #4; 5 who received formula #1 and 1 who received formula #6. A sample of 52 exclusively breast-fed infants were also selected and matched to the over formula-fed group with regards to mean age, gestation duration, birth weight, male:female ratio, ethnicity ratio, maternal education, family size, and number of languages spoken in the home (in addition to English).
Each infant was scanned using the mcDESPOT (multicomponent Driven Equilibrium Single Pulse Observation of T1 and T2) white matter imaging technique Deoni et al. (Magn. Reson. Med. 2008, 60:1372-1387), which provides a quantitative measure of the myelin water fraction (MWF)—a measure of myelin content—at each point throughout the brain. All infants were scanned during natural (i.e. non-sedated) sleep using acoustically-muffled mcDESPOT imaging protocols. Total imaging times ranged from 19 minutes for the youngest toddlers to 24 minutes for the older 4 year-old children.

[2] = system: neural progenitor cell (NPCs); test: Neurosphere counts in 96-well plates; assay type: cell-based, mouse; conditions: cells grown for 2 days
Description: Generation of neural progenitor cell (NPCs) libraries:
dissociation of E14 mouse neocortex
E14 pup brains were harvested and placed in ice cold DPBS(1X)+10% Pen/Strep, then they were dissected using a dissecting microscope. From each pup, one brain hemisphere was placed in 2 ml of Neurobasal media/10% P/S/10X Hepes and another brain hemisphere was placed in another tube.
The tissue from each tube was aseptically and manually dissociate into single cells, neurobasal complete medium was added and centrifuged at 130G for 5 min. The tissue was then re-suspended in neurobasal complete media with GF and placed in a corning suspension culture dish 100 mm×20 mm (#430591). Cells were passage twice using a 1:3 ratio, after what they were centrifuged (130 g 5 min), resuspended in freezing media (10% DMSO and neurobasal complete media, no GF) and frozen in liquid nitrogen (LN2).
Corning Costar 3474, 96 well plate, Ultra low attachment
3-4 mLs of cells were taken out of the tilted plate and add to a 15 ml conical. Some of the remaining media was used to rinse down the plate. All remaining media was drawn up and put into a 15 ml conical tube, and Spun at 130 G for 5 min. All media was removed. The cells were gently resuspended in 5 mls of warm PBS, spun again. PBS was then removed and the cells were then gently resuspended in 500 μl of Accutase(Corning™ Accutase™ Cell Detachment Solution, #25058Cl). The cells were then Pipetted gently with a 1000 μl tip to break up pellet, and then they were placed in a shaking water bath for 5-10 minutes, after which time they were swirled by hand frequently.
Control and compound media was made with #2 media and contain 29 uM Choline, low (5 uM) and medium (70 uM) choline media was made with #3 media.
Clumps were no bigger than ˜3-5 cells. 5-10 mls of warm media (GF) was added to dilute enzyme. 2 mls of media was added. […]
in AB staining solution for five min. Imaging was carried out using a GE Cytell imager or LSM 710, Zeiss confocal microscope and the diameters of neurospheres with ImageJ software (National Institutes of Health) was analysed.

[3] = system: neural progenitor cell (NPCs); test: Monolayer culture NPC proliferation assay; assay type: cell-based, mouse; conditions: 3 days culture
Description: 24 well glass bottom plates (Mat Tek P24G-1.0-13-F Case, glass bottom 24 well plates) were coated with poly-L-ornithin (Sigma P4957) and Fibronection (Sigma F1141) before use in the assay below.
Cells were plated (10,000 cells per well) in Complete media with GF for 24 hours (500 ul per well). Once cells had been attached they were switched to choline deficient media, other compound media, or appropriate media.
After 24 h, it was ensured that cells had attached to the plate then the medium was carefully removed. 500 μL of compound media plus GF.was added. The cells were cultured for 3 days in appropriate media.
Control and compound media was made with #2 media and contains 29 uM Choline, Low (5 uM) and medium (70 uM) choline media was made with #3 media.
EDU incorporation was measured using Click-iT® EdU Alexa Fluor® 555 Imaging Kit (Life technologies, #c10338).
At the end of day 3 EdU was added to each well at 10 μM for 30 minutes prior to fixation. For fixation and subsequent immunohistochemical analysis, the medium was removed, the cells were rinsed once with 1X PBS for 5 min, and fixed with 4% PFA in 1X PBS for 15 min at 4° C., then the cells were washed twice with 1X PBS for 5 min, left in 1X PBS, wrapped in foil and leave overnight at 4° C., or staining was proceeded with.
PBS was removed and enough AB staining solution (1% Goat
serum, 1xPBS, and 0.1% triton X) added to cover the bottom, the blockwas kept at room temp for 1 hour. The cells were stained for EDU. The cells were Incubated for 30 min at room temp, in the dark. The cells were washed with 1X PBS and stained with Dapi 1:5000 ul for 15 min. The cells were washed once with 1X PBS, then left in PBS at 4° C., or Imaged immediately using a GE Cytell imager (cell viability
application), or LSM 710, Zeiss confocal microscope (with ImageJ software (National Institutes of Health) analysis).

Substance: Sphingomyelin
- association of nutrient content of infant formula with myelination (myelin water fraction) over time in the brain [1]: an association with myelination (myelin water fraction) was observed
- number of neurospheres, Average (Mean) ([2]; Sphingomyelin High (Dose 3, 1 μm)): 219
- number of neurospheres, Average (Mean) ([2]; Sphingomyelin Low (Dose 1, 10 nM)): 94
- number of neurospheres, Average (Mean) ([2]; Sphingomyelin Med (Dose 2, 100 nM)): 121
- neuronal proliferation, DAPI ([3]; Sphingomyelin high (Dose 3, 1 μm)): 305
- neuronal proliferation, DAPI ([3]; Sphingomyelin low (Dose 1, 10 nM)): 280
- neuronal proliferation, DAPI ([3]; Sphingomyelin med (Dose 2, 100 nM)): 314
